Results: patent US20240261271A1, “APPLICATION OF HYDRONIDONE IN PREPARATION OF DRUG FOR TREATING OR PREVENTING CHRONIC HEPATITIS B WITH LIVER FIBROSIS” (priority 2021, published 2024)

How the values were obtained:
[1] = test system: liver stiffness in chronic hepatitis B with hepatic fibrosis; experiment: Phase II clinical study: liver transient elastography LSM (kPa); type: in vivo, human; details: FAS, after 52 weeks of treatment
Experimental: (§1) This is a randomized, double-blind, placebo-controlled, multicenter, and dose-finding phase II clinical study with foundational treatment. In the clinical trial, three different dose test groups and a placebo control group were set on the basis of the entecavir capsule antiviral treatment, and the planned sample amount of each group was 60 cases, totaling 240 cases. The three dose test groups were 180 mg group, 270 mg group, and 360 mg group, respectively. The proportion of each test group to the control group was 1:1:1:1, and the cases were distributed randomly. […] Negative conversion rate of HBV DNA after treatment between the groups was compared using CMH-λ2 test or Fisher's exact probability method. • 2. Liver tissue elasticity reduction after treatment between the groups was compared using Kruskal-Wallis H test. • 3. […] The recovery rate of the liver function index after treatment between the groups was compared using CMH-λ2 test or Fisher's exact probability method, and the found values of each index between the groups were compared using variance analysis or Kruskal-Wallis H test.

[2] = Phase II clinical study: safety (adverse events, adverse effects, SAE); type: in vivo; details: 180, 270 and 360 mg groups vs placebo, 52 weeks, adverse effects and SAE incidence rates not statistically different
Excerpt: Safety indexes: vital signs, laboratory indexes, adverse events/adverse effects, and the like.
All cases that had been randomized, used the study drug at least once, and had safety evaluation data after medication, constitute the safety population for this study.
Safety indexes include adverse events/adverse effects, laboratory indexes, physical examinations, and the like. • 1. The incidence rates of the adverse events/adverse effects of each group were compared using CMH-λ2 test or Fisher's exact probability method, and the relative frequency and severity of all the adverse events in the test, the relationship with the drug, the treatment, the outcome, and the like were described in a table. • 2. The physical examinations were described in a table for normal/abnormal changes after the experiment. • 3. The laboratory indexes were described in a table for normal/abnormal changes, abnormal exacerbation, and the like before and after the test, and the relationship between the laboratory indexes and the test drug was evaluated. The quantitative indexes were statistically described for each time point measured, the variation inside the groups was compared using Wilcoxon signed rank test, and the variation between the groups was compared using Kruskal-Wallis H test.

HBV DNA = experiment: Phase II clinical study: negative conversion rate of HBV DNA; type: in vivo, human; details: for proportion of the subjects with HBV DNA substantially converted to negative: after 52 weeks of treatment, with entecavir
Experimental: as §1

[3] = test system: liver tissue inflammation; experiment: Phase II clinical study: liver tissue inflammation grading; type: in vivo, human; details: after 52 weeks of treatment
Experimental: as §1

## Cc1ccc(=O)n(-c2ccc(O)cc2)c1 [hydronidone]
[1]; 180 mg group
  mean decline rate (standard deviation) of the liver transient elastography LSM (kPa): 18.30%
[1]; 270 mg group
  mean decline rate (standard deviation) of the liver transient elastography LSM (kPa): 24.62%
[1]; 360 mg group
  mean decline rate (standard deviation) of the liver transient elastography LSM (kPa): 18.98%
[2]
  safety: good
HBV DNA; 180 mg group
  proportion of the subjects with HBV DNA substantially converted to negative: 34 (94.44%) n(%)
HBV DNA; 270 mg group
  proportion of the subjects with HBV DNA substantially converted to negative: 34 (97.14%) n(%)
HBV DNA; 360 mg group
  proportion of the subjects with HBV DNA substantially converted to negative: 32 (94.12%) n(%)
HBV DNA; each hydronidone test group, 52 weeks
  influence on the reduction of the virus titer by entecavir and the ALT recovery: no influence
[3]; 180 mg group
  proportion of the subjects with the liver tissue inflammation ameliorated: 21 (58.33%) n(%)
[3]; 270 mg group
  proportion of the subjects with the liver tissue inflammation ameliorated: 20 (57.14%) n(%)
[3]; 360 mg group
  proportion of the subjects with the liver tissue inflammation ameliorated: 19 (55.88%) n(%)
